# Measurements as given in a melting point compilation (Tetko et al.; mined from patent text by program, amines drawn as free bases though some values may be those of a salt).
row,SMILES,melting point
1,CCOC(=O)C(=O)Nc1cccc(NC(=O)C(=O)OCC)n1,179 to 180 °C
2,Cn1nc(-c2ccccc2)c2cccc(NS(C)(=O)=O)c2c1=O,217 to 218 °C
3,CCN(CC)CCOCCc1ccc2sc(C(N)=O)cc2c1,82 to 84 °C
4,O=C(Nc1ccc(Oc2ccccc2F)nc1)N1CCc2ccccc2CC1,170 to 172 °C
5,O=S1(=O)c2sccc2C=C(CO)N1CCN1CCOCC1,119 to 121 °C
6,OC1CSC(Oc2cc(-c3ccncc3)cc(F)c2F)C(O)C1O (stereo not given),151 °C
7,C=CCNc1cc(OCC=C)c(C(=O)O)cc1Cl,83.5 to 86 °C
8,O=C=Nc1c(Cl)c(Cl)c(Cl)c(Cl)c1Cl,100 to 102 °C
9,CC(=O)NCCc1ccc(CCC(=O)O)cc1,132 to 133 °C
10,O=C(O)Cn1cnc2c(NC3CCCCC3)nc(NCc3ccc(C4CCCCC4)cc3)nc21,172 to 179 °C
11,OCCOCc1nnc2n1-c1ccc(Cl)cc1C(c1ccccc1)=NC2,162 to 164 °C
12,CCOC(=O)c1c(-c2ccc(F)cc2)nc(-c2ccccc2)nc1C(C)C,97 to 99 °C
13,O=C(O)C1CCCc2c1c1ccccc1n2Cc1ccccc1 (stereo not given),212 to 215 °C
14,COc1cc2c(cc1OC)C(C=Cc1ccc(Br)cc1)=NN=C(C)C2,156 to 158 °C
15,CC1=C(/C=C/C(C)=C/C=C/C(C)=C\C(=O)O)C(C)(C)C(=O)CC1,178 to 179 °C
16,CCOC(=O)COc1cc2c(c(Cl)c1Cl)C(=O)C(CC)C2 (stereo not given),116 to 118 °C
17,CCOC(=O)CC[C@H](NC(=O)Oc1ccc(CCCCc2c(N)nc(N)nc2O)s1)C(=O)OCC,96 to 98 °C
18,Nc1ccc(S(=O)c2ccc(-c3ccc(Br)cc3)cc2)cc1[N+](=O)[O-] (stereo not given),218 to 220 °C
19,O=C(O)CN(c1ccccc1)S(=O)(=O)c1ccccc1,166 to 167 °C
20,Cc1ccc(S(=O)(=O)C(=[N+]=[N-])S(C)(=O)=O)cc1,108 to 109 °C
21,Nc1ccc(OCCCCCCCCCCOc2ccc(N)cc2)cc1,70 to 71 °C
22,COc1ccc(-c2nnsc2-c2ccc(OC)cc2)cc1,80 to 82 °C
23,COCC(=O)O[C@@H]1[C@@H](c2ccccc2)Nc2c(ccn3c(C)c(C)nc23)[C@@H]1OC,73 to 75 °C
24,O=C(NCc1cccnc1)c1[nH]c2ccc(Cl)cc2c1S(=O)(=O)c1ccccc1,263 to 264 °C
25,CCCc1c(O)c(C(C)=O)cc(Cl)c1OCCCOc1ccc2ccc(OCC(=O)OC)cc2c1C(C)=O,121 to 124 °C

row,SMILES,melting point
1,CC(C)S(=O)(=O)c1ccc2c(c1)nc(CC1(C)CCCC1)n2CC1CC1,122 °C
2,O=C(c1ccc(Cl)cc1)c1cc[nH]c1,118 to 120 °C
3,Nc1sc2c(c1C(=O)c1ccc3ccccc3c1)CCC(Cc1ccccc1)C2 (stereo not given),69 to 70 °C
4,CNc1c(C/C=C(\C)CCC(=O)O)c(OC)c(C)c2c1C(=O)OC2,121 to 124 °C
5,Cc1ccc(C(=O)NC(NC(=NC#N)Nc2ccccc2F)C(Cl)(Cl)Cl)cc1 (stereo not given),220 to 222 °C
6,CCOC(=O)C12CC1CN(S(=O)(=O)c1ccc(C)cc1)C2c1ccccc1 (stereo not given),123 to 124 °C
7,Cc1cc2c(cc1Br)nc1n2CCC1,167 to 170 °C
8,C=Cc1ccc(CN2C(=O)c3ccccc3C2=O)c2ccccc12,146 to 147 °C
9,Clc1cc(-c2ccc3c(c2)CCO3)nc2ccccc12,130 to 132 °C
10,C=CCOC(=O)c1c(C)c(OC)cc(O[Si](C)(C)C(C)(C)C)c1C=O,94 to 95 °C
11,CCCCC(CC)COc1ccc(-c2nc(-c3ccc(OCC(CC)CCCC)cc3)nc(-c3ccc(OCC(CC)CCCC)cc3O)n2)cc1 (stereo not given),93 to 95 °C
12,COc1ccc(C2NC(=S)NC(C)=C2C(C)=O)cc1 (racemic),175 °C
13,O=C(O)CSc1c(C(=O)O)[nH]c2cc(Cl)cc(Cl)c12,152 to 153 °C
14,CCn1c(=O)c(-c2cc(OC)cc(OC)c2)cc2cnc(S(C)=O)nc21 (stereo not given),114 to 116 °C
15,FC(F)(F)c1nnc(Cl)c2cc3ccccn3c12,245 to 246 °C
16,CC(=O)c1ccccc1Nc1ccc(O)cc1,168 to 169 °C
17,Cc1ccc(Oc2ccc(C=O)cc2)cn1,45 to 46 °C
18,CCc1ccc2oc(=O)[nH]c2c1,146 to 147 °C
19,N#Cc1ccc2oc(C(=O)CBr)cc2c1,156 to 158 °C
20,Cn1cncc1C(N)(c1ccc([N+](=O)[O-])cc1)c1ccc2c(c1)c(-c1cccc(Cl)c1)cc(=O)n2C (stereo not given),258 °C
21,COC(=O)c1nccnc1NS(=O)(=O)c1cccc(Cl)c1Cl,177 to 178 °C
22,O=C(O)CS(=O)(=O)Nc1ccc(F)cc1F,110 to 112 °C
23,COc1cc2c(cc1Cl)C(Cl)Cc1ccccc1S2 (stereo not given),130 to 132 °C
24,CCOC(=O)CC[C@H](NC(=O)c1ccc(N)cc1F)C(=O)OCC,130 to 132 °C
25,CC(C)n1cc(C(=O)NCc2ccc(Cl)cc2)c(=O)c2cc(CCCO)sc21,84 to 92 °C

row,SMILES,melting point
1,CCCN(CCC)Cc1nc(-c2ncn3c2[C@@H]2CCN2C(=O)c2c(Cl)cccc2-3)no1,147 to 153 °C
2,CC1=C(C(=O)OC(C)C)C(c2cccc([N+](=O)[O-])c2)N(C(=O)NCc2ccccc2)C(=O)N1 (stereo not given),184 to 185 °C
3,O=C1N(Cc2ccccc2C(F)(F)F)c2ccccc2C12COc1cc3c(cc12)OCCO3 (stereo not given),137 to 138 °C
4,CC(C)c1cccc(S(=O)(=O)n2c(CCCCC(=O)O)cc3cc(C(F)(F)F)ccc32)c1,119 °C
5,CC(C)N1C(=O)c2cccc(Cl)c2N(C#N)S1(=O)=O,123 to 124 °C
6,O=C(c1ccc2nonc2c1)N1CC2CCC1CC2,138 to 139 °C
7,CNC(=NCCCc1nc2cc(C3=NNC(=O)CC3C)ccc2[nH]1)NS(=O)(=O)c1ccccc1 (stereo not given),258 to 260 °C
8,O=C(Nc1cccnn1)N1CCN(c2nccc(-c3cc(F)cc(F)c3)n2)CC1,270 to 271 °C
9,Cc1c(NC(=O)c2ccc(-c3ccc(Cl)s3)cc2F)ccc2cc(CN3CCCC3)cnc12,160 to 162 °C
10,COc1cc(Nc2c(C#N)cnc3cc(OCC(C)(C)CN(C)C)c(OC)cc23)c(Cl)cc1Cl,178 to 180 °C
11,CSc1nn2c(N(C)C)cc(C)nc2c1S(=O)(=O)c1ccccc1,> 230 °C
12,COc1ccc2nc(NC(=O)C(CC3CCCC3)c3ccc(S(=O)(=O)N(C(C)C)C(C)C)cc3)sc2n1 (stereo not given),83 to 85 °C
13,O=C(NOC1CCCCO1)c1cnc(N2CCC(NS(=O)(=O)c3ccc4ccccc4c3)CC2)nc1 (stereo not given),226 °C
14,CC#CCOc1cc(Oc2ccc(C#N)cc2)ncn1,162 °C
15,CC(Oc1ccc(O)cc1)C(=O)Nc1ccc(OC(F)(F)F)cc1 (stereo not given),74.5 to 75 °C
16,C#CCn1c(=O)c2ccccc2c(=O)c2ccccc21,117 to 118 °C
17,COc1ccc([N+](=O)[O-])cc1CN1CCNCCNCCNCC1,154 to 156 °C
18,CCCCSCC(=O)c1ccc2[nH]c(=O)[nH]c2c1,211 to 213 °C
19,COc1nccc(C)c1NC(=O)c1cccnc1NC1CC1,151 to 152 °C
20,c1cn(-c2nc(N3CCOCC3)nc(N3CCOCC3)n2)cn1,248 to 250 °C
21,O=C1C2C[C@@H](OCc3ccccc3)CN2C(=O)N1c1ccc([N+](=O)[O-])c2ccccc12 (stereo not given in full),120 to 122 °C
22,CCCc1cc(-c2nc3c(s2)CCCO3)ccc1O,152 to 154 °C
23,COC(=O)c1ccc(-c2ccccn2)cc1,96 °C
24,CCOC(=O)c1c(O)c2cccnc2n(Cc2ccc(OC)cc2)c1=O,153 °C
25,O=C(c1cc2ccccc2s1)N1CCc2[nH]c3c(cnc4cc(Cl)ccc43)c2C1,> 250 °C

row,SMILES,melting point
1,Cn1c(Cl)c(Cl)c(C(=O)c2cc(C(C)(C)C)c(O)c(C(C)(C)C)c2)c1Cl,155 to 156 °C
2,CCOC(=O)CCCOc1ccc(C=Cc2ccncc2)cc1,83 to 85 °C
3,CCOC(=O)C1=C(C)Nc2ccnc(OC(C)C)c2C1c1ccc(C(F)(F)F)cc1 (stereo not given),117 to 120 °C
4,COC(=O)c1ccc(OCCNC(=O)C2Cc3ccccc3N2S(=O)(=O)c2ccc(-c3ccc(F)cc3)cc2)c(C(F)(F)F)c1 (stereo not given),90 to 95 °C
5,O=C(O)Cc1ccc(NCCNC(=O)C2Cc3ccccc3N2S(=O)(=O)c2ccc(-c3cc(C(F)(F)F)ccc3Cl)cc2)cc1 (stereo not given),110 to 118 °C
6,C=C(F)C(=O)Oc1c(Cl)cc(C#N)cc1Cl,95 to 99 °C
7,CCn1c(=S)sc2c(=N)n(NC(N)=O)cnc21,212 °C
8,CCCCS(=O)(=O)NC1Cc2ccc(C(=O)CCC(=O)O)cc2C1 (stereo not given),138 to 140 °C
9,CCNc1nc2n(n1)CCc1ccccc1-2,100 to 101 °C
10,Cn1c(C(F)(F)F)cc(=O)n(-c2c(F)cc(Cl)c3ccoc23)c1=O,127 to 128 °C
11,CCCCc1ncc(C=C(Cc2cccs2)C(=O)O)n1Cc1cccc(C(=O)O)c1,243 to 244 °C
12,O=C(Nc1cccc(-c2ccnc3c(C(=O)c4cccs4)cnn23)c1)c1cnccn1,222 to 224 °C
13,COC(=O)c1ccc(C(=O)NS(=O)(=O)c2ccc(CCNC(=O)Cc3ccc(OC)c(OC)c3)cc2)cn1,164 to 169 °C
14,CCOC(=O)COc1ccc(Cn2c(-c3ccc(OC4CCCC4)cc3)c(C)c3cc(OCc4ccccc4)ccc32)cc1,96 to 98 °C
15,CC(C)(c1ccccc1)n1nnc(-c2ccccc2)n1,44 to 46 °C
16,CCCCCCCCCCc1cc(C=O)on1,46 to 48 °C
17,CCCc1nc2c(N)nc(C)c(C)c2n1CCCCCCS(C)(=O)=O,157 to 158 °C
18,CN(C)c1ccc(-c2c(O)c3ccc(Cl)cc3[nH]c2=O)cc1,> 300 °C
19,CCCOc1ccccc1-c1nc2nc(OCC)ncc2c(=O)[nH]1,196 to 198 °C
20,CCCC/C(=C\C=C\C(=O)Oc1ccc([N+](=O)[O-])cc1)c1cccc(OC)c1,81.5 to 83 °C
21,COC(=O)c1cnc(S)n1C1CC(C)c2ccccc21 (stereo not given),177 °C
22,Nc1ccc([N+](=O)[O-])cc1-c1cc([N+](=O)[O-])ccc1N,315 to 317 °C
23,CCc1ccc(S(=O)O)cc1Cl,58 to 60 °C
24,CC(=O)NCc1ccc(C(C)N2CCN(c3ccc(F)cc3)CC2)cc1 (stereo not given),128 to 130 °C
25,Nc1c(NCCCO)cccc1OCc1ccccc1,82 to 83 °C
